Converted amounts (≈) assume the structure as drawn.
How the values were obtained:
Staphylococcus aureus [1] = assay: Antibacterial activity against methicillin-sensitive wild type Staphylococcus aureus assessed as growth inhibition after 18 to 24 hrs by CLSI broth microdilution method; assay type: functional
[2] = Inhibition of ATPase activity in Escherichia coli ParC/ParE by ammonium molybdate/malachite green-based absorbance assay
[3] = Antibacterial activity against wild type Haemophilus influenzae Rd KW20 ATCC 51907 assessed as growth inhibition after 18 to 24 hrs by CLSI broth microdilution method; assay type: functional
[4] = Inhibition of ATPase activity in Escherichia coli ParE by ammonium molybdate/malachite green-based absorbance assay
Escherichia coli [5] = assay: Antibacterial activity against tolC efflux pump deficient Escherichia coli W3110 assessed as growth inhibition after 18 to 24 hrs by CLSI broth microdilution method; assay type: functional
Staphylococcus aureus [6] = assay: Antibacterial activity against methicillin-resistant and […] Staphylococcus aureus assessed as growth inhibition after 18 to 24 hrs by CLSI broth microdilution method; assay type: functional
[7] = Inhibition of ATPase activity in Escherichia coli GyrA/GyrB by ammonium molybdate/malachite green-based absorbance assay
DNA gyrase subunit B = DNA gyrase subunit B (Staphylococcus aureus, UniProt P0A0K8); assay: Inhibition of ATPase activity in Staphylococcus aureus GyrB tetramer in presence of Escherichia coli GyrA by ammonium molybdate/malachite green-based absorbance assay
Moraxella catarrhalis = assay: Antibacterial activity against wild type Moraxella catarrhalis ATCC 43617 assessed as growth inhibition after 18 to 24 hrs by CLSI broth microdilution method; assay type: functional
Escherichia coli [8] = assay: Antibacterial activity against wild type Escherichia coli W3110 assessed as growth inhibition after 18 to 24 hrs by CLSI broth microdilution method; assay type: functional
[9] = Antibacterial activity against Streptococcus pneumoniae D39 NCTC 7466 assessed as growth inhibition after 18 to 24 hrs by CLSI broth microdilution method; assay type: functional
[10] = Unbound fraction in human at 10 uM after 16 hrs by LC-MS/MS analysis; assay type: ADME; settings: plasma
[11] = Octanol-phosphate buffer partition coefficient, log D of the compound at pH 7.4 after 1 hr by shake flask method; assay type: physicochemical
[12] = Solubility of the compound; assay type: physicochemical
[13] = Volume of distribution at steady state in rat plasma at 10 mg/kg, iv administered 15 mins of infusion measured for 0 to 24 hrs by LC-MS/MS analysis; assay type: ADME, organism-based; set-up: dose 10 mg/kg, route intravenous; settings: read-out: Vdss
[14] = Clearance in rat plasma at 10 mg/kg, iv administered 15 mins of infusion measured for 0 to 24 hrs by LC-MS/MS analysis; assay type: ADME, organism-based; set-up: dose 10 mg/kg, route intravenous

DNA gyrase subunit B, sequence (P0A0K8 whole entry): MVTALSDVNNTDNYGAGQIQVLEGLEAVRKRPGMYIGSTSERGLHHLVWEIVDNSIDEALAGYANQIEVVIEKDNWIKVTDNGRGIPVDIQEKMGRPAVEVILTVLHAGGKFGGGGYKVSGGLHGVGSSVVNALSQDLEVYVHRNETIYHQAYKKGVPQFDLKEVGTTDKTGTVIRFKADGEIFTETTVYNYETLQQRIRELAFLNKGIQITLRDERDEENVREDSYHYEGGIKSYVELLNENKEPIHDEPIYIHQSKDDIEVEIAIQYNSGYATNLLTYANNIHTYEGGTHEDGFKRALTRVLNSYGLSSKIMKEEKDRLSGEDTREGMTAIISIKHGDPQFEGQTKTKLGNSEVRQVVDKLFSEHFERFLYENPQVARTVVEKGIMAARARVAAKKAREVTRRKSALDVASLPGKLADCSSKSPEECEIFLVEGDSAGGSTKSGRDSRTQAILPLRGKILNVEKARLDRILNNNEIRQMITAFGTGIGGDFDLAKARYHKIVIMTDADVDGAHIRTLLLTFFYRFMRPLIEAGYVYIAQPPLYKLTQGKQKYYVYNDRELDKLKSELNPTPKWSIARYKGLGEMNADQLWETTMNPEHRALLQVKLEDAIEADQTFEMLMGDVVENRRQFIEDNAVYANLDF

| Compound | MIC (Staphylococcus aureus [1]) [µg/mL] | IC50 [2] [µM] | MIC [3] [µg/mL] | IC50 [4] [µM] | MIC (Escherichia coli [5]) [µg/mL] | MIC (Staphylococcus aureus [6]) [µg/mL] | IC50 [7] [µM] | IC50 (DNA gyrase subunit B) [µM] | MIC (Moraxella catarrhalis) [µg/mL] | MIC (Escherichia coli [8]) [µg/mL] | MIC [9] [µg/mL] | fraction unbound at 16 h, 10 µM [10] | logD at 1 h [11] | solubility [12] [µM] | Vd [13] [L/kg] | clearance [14] [mL/min/kg] |
| --- | --- | --- | --- | --- | --- | --- | --- | --- | --- | --- | --- | --- | --- | --- | --- | --- |
| CCNC(=O)Nc1ccc(-c2ncc(C(N)=O)s2)cn1 | 64 (≈ 220 µM) | 27 | 32 (≈ 110 µM) | 0.38 | 16 (≈ 54.9 µM) | > 64 | 0.56 | 0.55 | 8 (≈ 27.5 µM) | > 64 | 4 (≈ 13.7 µM) | – | – | – | – | – |
| CCNC(=O)Nc1cc(-c2nc(C(F)(F)F)cs2)c(-c2cncc(-c3nnc(C)o3)c2)cn1 | 0.19 (≈ 0.4 µM) | 0.51 | 33 (≈ 69.4 µM) | 0.015 | 0.26 (≈ 0.547 µM) | 0.26 (≈ 0.547 µM) | < 0.01 | < 0.01 | 0.37 (≈ 0.778 µM) | > 64 | 0.05 (≈ 0.105 µM) | 0.11 | 2.4 | 1 (≈ 0.475 µg/mL) | 3.3 | 123 |
| CCNC(=O)Nc1ccc(Oc2cccc(C(=O)O)c2)cn1 | > 64 | > 200 | > 64 | 16 | > 64 | – | 4.4 | 9.9 | > 64 | > 64 | > 64 | – | – | – | – | – |
| CCNC(=O)Nc1cc(-c2ccccc2)c(-c2cncc(C(=O)O)c2)cn1 | > 64 | 2 | > 64 | 0.17 | 36 (≈ 99.3 µM) | – | 0.096 | 0.06 | > 64 | > 64 | 4.5 (≈ 12.4 µM) | – | -0.31 | – | – | – |
| O=C(Nc1ccccn1)NC1CC1 | – | – | – | – | – | – | – | 1000 | – | – | – | – | – | – | – | – |
| CCNC(=O)Nc1ccccn1 | – | – | – | – | – | – | – | 32 | – | – | – | – | – | – | – | – |
| CCNC(=O)Nc1ccc(-c2cncc(C(=O)O)c2)cn1 | > 64 | 24 | > 64 | 0.4 | > 64 | – | 1.4 | – | > 64 | > 64 | > 64 | – | – | – | – | – |
| CCNC(=O)Nc1cc(-c2nc(C(F)(F)F)cs2)c(-c2ncc(C(=O)O)s2)cn1 | > 64 | 0.94 | > 64 | < 0.01 | 22 (≈ 49.6 µM) | 44 (≈ 99.2 µM) | < 0.01 | < 0.01 | 44 (≈ 99.2 µM) | > 64 | 2.8 (≈ 6.31 µM) | – | – | – | – | – |
| CCNC(=O)Nc1ccc(-c2ccc(C(=O)O)cc2)cn1 | > 64 | 28 | 16 (≈ 56.1 µM) | 0.054 | 16 (≈ 56.1 µM) | – | 1.6 | 0.88 | 4 (≈ 14 µM) | > 64 | – | – | – | – | – | – |
| CCNC(=O)Nc1cc(-c2nc(C(F)(F)F)cs2)c(-c2cncc(-c3nc(C)no3)c2)cn1 | 0.37 (≈ 0.778 µM) | 1.4 | > 64 | 0.025 | 0.74 (≈ 1.56 µM) | 0.19 (≈ 0.4 µM) | < 0.01 | 0.052 | 0.74 (≈ 1.56 µM) | > 64 | < 0.095 | 0.063 | 3.4 | < 1 | 11 | 100 |
| CCNC(=O)Nc1cc(-c2ccncc2)c(-c2cncc(C(=O)O)c2)cn1 | > 9 | 11 | > 9 | 0.31 | > 9 | – | 0.24 | 0.32 | > 9 | > 9 | > 9 | – | -0.82 | – | – | – |
| CCNC(=O)Nc1ccc(-c2cccc(C(=O)O)c2)cn1 | > 64 | 69 | 59 (≈ 207 µM) | 2 | > 64 | – | 4.7 | 3.4 | 42 (≈ 147 µM) | > 64 | 21 (≈ 73.6 µM) | – | – | – | – | – |
| CCNC(=O)Nc1ccc(-c2nc3cccc(C(=O)O)c3s2)cn1 | > 64 | 2.1 | 16 (≈ 46.7 µM) | – | 8 (≈ 23.4 µM) | – | – | 0.1 | 8 (≈ 23.4 µM) | > 64 | 2 (≈ 5.84 µM) | – | – | – | – | – |
| CCNC(=O)Nc1cc(-c2nc(C(F)(F)F)cs2)c(-c2cncc(C#N)c2)cn1 | 0.33 (≈ 0.789 µM) | 1.1 | 21 (≈ 50.2 µM) | < 0.01 | 0.33 (≈ 0.789 µM) | 0.23 (≈ 0.55 µM) | < 0.01 | < 0.01 | 0.33 (≈ 0.789 µM) | > 64 | < 0.084 | 0.059 | 2.8 | 7 (≈ 2.93 µg/mL) | 3.4 | 110 |
| CCNC(=O)Nc1cc(-c2cccnc2)c(-c2cncc(C(=O)O)c2)cn1 | > 64 | 10 | > 64 | 0.31 | > 64 | – | 0.3 | 0.27 | > 64 | > 64 | > 64 | – | -1.5 | – | – | – |
| CCNC(=O)Nc1ncccn1 | – | – | – | – | – | – | – | 80 | – | – | – | – | – | – | – | – |
| CCNC(=O)Nc1cc(-c2nc(C(C)(C)C)cs2)c(-c2cncc(C(=O)O)c2)cn1 | > 64 | 2.3 | 43 (≈ 101 µM) | 0.072 | 11 (≈ 25.9 µM) | – | 0.012 | 0.03 | 43 (≈ 101 µM) | > 64 | 0.66 (≈ 1.55 µM) | – | 0.12 | – | – | – |

— ChEMBL document CHEMBL3232928, “Fragment-to-hit-to-lead discovery of a novel pyridylurea scaffold of ATP competitive dual targeting type II topoisomerase inhibiting antibacterial agents” (J Med Chem, 2013)
